Results published in patent publication US11999806B2, “Broad-spectrum polypeptide against enterovirus and application thereof” (WUHAN INSTITUTE OF VIROLOGY, CHINESE ACADEMY OF SCIENCES, priority 2018, dated 2024).
Several values for one entry are separate records, joined by “and”; a condition that tells them apart may be missing. Equal entries are not always repeated. Where two headings read alike, the source gives them in different places. Non-standard residues stand in square brackets, D forms with d. Residues, ends and D or L forms follow the SMILES beside them. No end group written: not given here.

Tested on: EV71
Format: cell-based, enterovirus 71
Conditions: RD cells, EV71 0.1 MOI, 24 h; for IC50: read-out: IC50 against EV71 by CCK8 method; for Virus inhibition rate (%): CCK-8
Experimental: • (1) 293T cells were plated in a 24-well cell plate. • (2) After the cells reached 70%-80% confluence, the MEM medium containing 10% serum was replaced with a MEM medium containing 2% serum (0.5 ml/well), and 5 μl of 10^6 PFU/mL EV71 virus per well was added. • (3) After 1 hour, polypeptides P2, 3A-TAT-EP, 3A-EP-DRI and 3A-EP-PEG-PA were added at a final concentration of 0.01 μM, 0.1 μM, 1 μM, and 10 μM, respectively. • (4) Samples were collected 24 hours after virus infection, and RNA was extracted with a total RNA extraction kit. • (5) The supernatant in each well was discarded, then 350 μl of TRK Lysis Buffer was added to the well and the plate was shaken on the shaker for 5 minutes. • (6) 350 μl of 70% ethanol (DEPC-treated) was added to the well and the plate was shaken on the shaker for 5 minutes. • (7) The mixture in the well was transferred to a RNA extraction column and centrifuged at 12000 g for 1 min. • (8) The solution collected in the recovery tube was added back to the column and centrifuged at 12,000 g for 1 min. • (9) RNA washing buffer 1 was added to the column and centrifuged at 12,000 g for 30 s. • (10) RNA washing buffer 2 was added to the column and centrifuged at 12,000 g for 1 min. • (11) Step (10) was repeated once. • (12) The empty column was centrifuged at 12,000 g for 2 min to completely remove residual RNA washing buffer. • (13) 50 μl DEPC-treated water was added to the column and centrifuge at 12000 g for 2 min. • (14) 2 μl RNA sample was used according to one step qRT-PCR kit for fluorescence quantification experiment. 3. […] Each concentration was tested in triplicate. • (3) The diluted virus solution was added to the plate of step (1), 100 μL per well with the final virus concentration was 0.1 MOI. Wells without polypeptide and virus (well without treatment), wells with virus only were used as controls. • (4) The mixture of step (2) was added to the 96-well plate plated with cells in step (1) and incubated in 5% CO2 at 37° C. for 24 h. Then CCK8 kit was used to determine the inhibitory effect of the polypeptide on virus. • (5) The inhibition rate of different concentrations of polypeptides on viral infection was calculated using the following formula: OD means the value of OD450-OD630, inhibition rate=(OD well with treatment−OD well with virus only)×100%/(OD well without treatment−OD well with virus only)
• (1) RD cells in good growth state were plated in a 96-well plate. • (2) After the cells reached 70%-80% confluence, the MEM medium containing 10% serum was replaced with a MEM medium containing 2% serum. Group without polypeptide and virus, and group with virus but without polypeptide were included as controls. The final virus concentration was 0.1 MOI. • (3) 1 h later, polypeptide CR at a final concentration of 5 μM, 2.5 μM, 1.25 μM, 0.625 μM, 0.3125 μM, and 0.15625 μM was added, respectively. Group without polypeptide and virus, and group with virus but without polypeptide were set as controls. • (4) 24 hours after virus infection, when the change in the control group with only virus was obvious, 10 μl of viable cell detection agent CCK-8 was added to each well and mixed well. • (5) The plate was incubated at 37° C. for 2 h. • (6) The absorbance value at OD450 was measured with a microplate reader. Inhibition rate of polypeptide=(OD well with treatment−OD well with virus only)×100%/(OD well without treatment−OD well with virus only), OD refers to the value of OD450-OD630.
• (1) RD cells in good growth state were plated in a 96-well plate. • (2) After the cells reached 70%-80% confluence, the MEM medium containing 10% serum was replaced with a MEM medium containing 2% serum. Group without polypeptide and virus, and group with virus but without polypeptide were included as controls. The final virus concentration was 0.1 MOI. • (3) 1 h later, polypeptide CR at a final concentration of 2.5 μM, 1.25 μM, 0.625 μM, 0.3125 μM, and 0.15625 μM was added, respectively. […]

Molecule | IC50 [nM] | Virus inhibition rate (%) (0.625 μM) | Virus inhibition rate (%) (1.25 μM) | Virus inhibition rate (%) (2.5 μM)
CC[C@@H](C)[C@@H](NC(=O)[C@H]1CCCN1C(C)=O)C(=O)N[C@@H](C(=O)N[C@H](Cc1c[nH]c2ccccc12)C(=O)NCC(=O)N[C@H](CCC(N)=O)C(=O)N[C@H](CCC(=O)O)C(=O)N[C@H](CCCNC(=N)N)C(=O)N[C@H](CS)C(=O)N[C@H](Cc1ccc(O)cc1)C(=O)N[C@H](CCC(N)=O)C(=O)N[C@H](CCCNC(=N)N)C(=O)N[C@@H](C(=O)N[C@H](CCC(=O)O)C(=O)N[C@H](CCC(=O)O)C(=O)N1CCC[C@@H]1C(=O)N1CCC[C@@H]1C(=O)N[C@H](CCCNC(=N)N)C(=O)N[C@H](CCCNC(=N)N)C(=O)N[C@H](CCCNC(=N)N)C(=O)N[C@H](CCC(N)=O)C(=O)N[C@H](CCCNC(=N)N)C(=O)N[C@H](CCCNC(=N)N)C(=O)N[C@H](CCCCN)C(=O)N[C@H](CCCCN)C(=O)N[C@H](CCCNC(=N)N)C(=O)NCC(=O)N[C@H](Cc1ccc(O)cc1)C(N)=O)C(C)C)[C@H](C)CC [3A-EP-DRI] | 3560 |  |  | 
CC(=O)N[C@H](CCCNC(=N)N)C(=O)N[C@H](CS)C(=O)N[C@H](Cc1ccc(O)cc1)C(=O)N[C@H](CCC(N)=O)C(=O)N[C@H](CCCNC(=N)N)C(=O)N[C@@H](C(=O)N[C@H](CCC(=O)O)C(=O)N[C@H](CCC(=O)O)C(=O)N1CCC[C@@H]1C(=O)N1CCC[C@@H]1C(=O)N[C@H](CCCNC(=N)N)C(=O)N[C@H](CCCNC(=N)N)C(=O)N[C@H](CCCNC(=N)N)C(=O)N[C@H](CCC(N)=O)C(=O)N[C@H](CCCNC(=N)N)C(=O)N[C@H](CCCNC(=N)N)C(=O)N[C@H](CCCCN)C(=O)N[C@H](CCCCN)C(=O)N[C@H](CCCNC(=N)N)C(=O)NCC(=O)N[C@H](Cc1ccc(O)cc1)C(N)=O)C(C)C [ER-DRI] (Ac-[dR][dC][dY][dQ][dR][dV][dE][dE][dP][dP][dR][dR][dR][dQ][dR][dR][dK][dK][dR]G[dY]-NH2) | 640 | 37.8% and 40.47% and 37.95% | 75.85% and 72.43% and 77.52% | 78.68% and 85.29% and 79.76%
YGRKKRRQRRRGSGEEVRQYCR [ER] | 1260 |  |  | 
